Data taken from patent publication US20070010671A1, “Novel quinazoline derivatives and methods of treatment related to the use thereof” (priority 2003, published 2007).
pIC50: −log10 of the molar value.

Molecular target: MCH receptor (Homo sapiens, UniProt Q99705)
Assay: High throughput functional screening FLIPR/FDSS6000: inhibition of MCH-evoked intracellular Ca2+ changes
Assay type: cell-based
Details: class by percent of control at 10^-7 M or IC50
In short: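 Cells expressing constitutively active MCH receptor, loaded with 4 μM Fluo4-AM for 1 h at 37 °C, were pretreated 3 min with compound, then challenged with MCH (50 nM for antagonist testing). MCH-evoked [Ca2+]i transients followed by FLIPR or FDSS (ex 488/em 530 nm) over 290 s.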

SMILES | class
Cc1noc(-c2ccccc2)c1NC(=O)NC[C@H]1CC[C@@H](Nc2nc(N(C)C)c3ccccc3n2)CC1 [compound 775] | 1 (Class 1: The value of percent of control at 10^−7 M was less than 40% or the value of IC50 was less than 50 nM.)
CN(C)c1nc(N[C@H]2CC[C@@H](CNC(=S)Nc3ccc(S(=O)(=O)N4CCCCC4)cc3)CC2)nc2ccccc12 [compound 778] | 3 (Class 3: The value of percent of control at 10^−7 M was more than 60% or the value of IC50 was more than 200 nM.)
CN(C)c1nc(N[C@H]2CC[C@@H](NC(=S)Nc3ccc(Oc4ccccc4)nc3)CC2)nc2ccccc12 [compound 404] | 3 (Class 3: The value of percent of control at 10^−7 M was more than 60% or the value of IC50 was more than 200 nM.)
Cc1ccc(C)c(NC(=S)NC[C@H]2CC[C@@H](Nc3nc(N(C)C)c4ccccc4n3)CC2)c1 [compound 783, N-[(cis-4-{[4-(dimethylamino)quinazolin-2-yl]amino}cyclohexyl)methyl]-N′-(2,5-dimethylphenyl)thiourea] | 2 (Class 2: The value of percent of control at 10^−7 M was from 40% to 60% or the value of IC50 was from 50 nM to 200 nM.)
CN(C)c1nc(N[C@H]2CC[C@@H](NC(=S)Nc3ccc(Cl)c([N+](=O)[O-])c3)CC2)nc2ccccc12 [compound 270] | 3 (Class 3: The value of percent of control at 10^−7 M was more than 60% or the value of IC50 was more than 200 nM.)
CN(C)c1nc(N[C@H]2CC[C@@H](NC(=O)Nc3cc(F)cc4c3OCOC4)CC2)nc2ccccc12 [compound 349, N-(cis-4-{[4-(dimethylamino)quinazolin-2-yl]amino}cyclohexyl)-N′-(6-fluoro-4H-1,3-benzodioxin-8-yl)urea] | 2 (Class 2: The value of percent of control at 10^−7 M was from 40% to 60% or the value of IC50 was from 50 nM to 200 nM.)
CN(C)c1nc(N[C@H]2CC[C@@H](CNC(=O)Nc3ccc(Cl)cc3C(F)(F)F)CC2)nc2ccccc12 [compound 545, N-[4-chloro-2-(trifluoromethyl)phenyl]-N′-[(cis-4-{[4-(dimethylamino)quinazolin-2-yl]amino}cyclohexyl)methyl]urea] | 1 (Class 1: The value of percent of control at 10^−7 M was less than 40% or the value of IC50 was less than 50 nM.)
CN(C)c1nc(N[C@H]2CC[C@@H](NC(=S)Nc3c(F)cccc3F)CC2)nc2ccccc12 [compound 213] | 3 (Class 3: The value of percent of control at 10^−7 M was more than 60% or the value of IC50 was more than 200 nM.)
CN(C)c1nc(N[C@H]2CC[C@@H](CNC(=S)NCc3ccc(Cl)c(Cl)c3)CC2)nc2ccccc12 [compound 682] | 3 (Class 3: The value of percent of control at 10^−7 M was more than 60% or the value of IC50 was more than 200 nM.)

Same assay, conditions: class by percent of control at 10^-7 M or by IC50; read-out: class

pIC50 | SMILES
6.70 to 7.30 | COc1ccccc1NC(=O)N[C@H]1CC[C@@H](Nc2nc(N(C)C)c3ccccc3n2)CC1 [compound 45, N-(cis-4-{[4-(dimethylamino)quinazolin-2-yl]amino}cyclohexyl)-N′-(2-methoxyphenyl)urea]
6.70 to 7.30 | CN(C)c1nc(N[C@H]2CC[C@@H](NC(=O)Nc3ccc(F)c(F)c3)CC2)nc2ccccc12 [compound 123, N-(3,4-difluorophenyl)-N′-(cis-4-{[4-(dimethylamino)quinazolin-2-yl]amino}cyclohexyl)urea]
6.70 to 7.30 | CCCCCCNC(=S)N[C@H]1CC[C@@H](Nc2nc(N(C)C)c3ccccc3n2)CC1 [compound 176, N-(cis-4-{[4-(dimethylamino)quinazolin-2-yl]amino}cyclohexyl)-N′-hexylthiourea]
< 6.70 | CN(C)c1nc(N[C@H]2CC[C@@H](NC(=S)Nc3cccc(Cl)c3)CC2)nc2ccccc12 [compound 163]
6.70 to 7.30 | CN(C)c1nc(N[C@H]2CC[C@@H](NC(=O)NCc3ccc(Cl)c(Cl)c3)CC2)nc2ccccc12 [compound 122, N-(3,4-dichlorobenzyl)-N′-(cis-4-{[4-(dimethylamino)quinazolin-2-yl]amino}cyclohexyl)urea]
